47 molecules from article PMC7155171, “Probing the Open Global Health Chemical Diversity Library for Multistage-Active Starting Points for Next-Generation Antimalarials” (ACS Infectious Diseases, 2020) can be followed below.

Each structure is given as a SMILES string. Read-outs that look alike come from different tables or passages of the source.

In this experiment the test system is P. falciparum Dd2 (PfLuc) line expressing firefly luciferase, asexual blood stage. As to the kind of experiment: microbe, parasite or virus in culture. The format is cell-based, Plasmodium falciparum. To be noted: Plasmodium falciparum.
[1] abbreviates: DD2, read-out: CDD P. falciparum Luciferase ABS 11-pt Reconfirmation Dose Response (48hr): IC50 (μM), 11-pt dose response, 48hr.
The mark [2] stands for this setting: DD2, 8-pt dose response, 96hr, read-out: CDD P. falciparum Luciferase ABS 8-pt Reconfirmation Dose Response (96hr): IC50.
[3] abbreviates: DD2, 8-pt dose response, 96hr, read-out: CDD P. falciparum Luciferase ABS 8-pt Reconfirmation Dose Response (96hr): Maximum inhibition (%).
The mark [4] stands for this setting: DD2, 11-pt dose response, 48hr, read-out: CDD P. falciparum Luciferase ABS 11-pt Reconfirmation Dose Response (48hr): Maximum inhibition (%).
The mark [5] stands for this setting: DD2, 11-pt dose response, 96hr, read-out: CDD P. falciparum Luciferase ABS 11-pt Reconfirmation Dose Response (96hr): IC50.
[6] abbreviates: DD2, 11-pt dose response, 96hr, read-out: CDD P. falciparum Luciferase ABS 11-pt Reconfirmation Dose Response (96hr): Maximum inhibition (%).
[7] abbreviates: DD2, 8-pt dose response, 96hr, read-out: P. falciparum Luciferase ABS 8-pt Reconfirmation Dose Response (96hr): IC50.
Setting [8] is: DD2, 8-pt dose response, 96hr, read-out: P. falciparum Luciferase ABS 8-pt Reconfirmation Dose Response (96hr): Maximum inhibition (%).
[9] abbreviates: DD2, read-out: P. falciparum Luciferase ABS 11-pt Reconfirmation Dose Response (48hr): IC50, 11-pt dose response, 48hr.
Where [10] appears, read: DD2, 11-pt dose response, 48hr, read-out: P. falciparum Luciferase ABS 11-pt Reconfirmation Dose Response (48hr): Maximum inhibition (%).
[11] abbreviates: DD2, 11-pt dose response, 96hr, read-out: P. falciparum Luciferase ABS 11-pt Reconfirmation Dose Response (96hr): IC50.
[12] abbreviates: DD2, 11-pt dose response, 96hr, read-out: P. falciparum Luciferase ABS 11-pt Reconfirmation Dose Response (96hr): Maximum inhibition (%).

For `O=C(CCN1CCCC1c1cccc2c1OCCO2)N1CCCCC1` (stereo not drawn) [DDD01070009], the half-inhibitory concentration (IC50) – broadly, the point on the concentration scale where inhibition reaches its midpoint – runs as follows: under setting [1], 6.96 µM; under setting [2], 1.06 µM; under setting [5], 2.64 µM. The Emax is 80.3% under setting [3], 51% under setting [4] and 84.9% under setting [6].
Regarding `CCN(CC1CN(Cc2nc(C3CC3)no2)CCO1)c1cccnn1` (stereo not drawn) [DDD01070232], the IC50 under setting [7] is 1.86 µM. In addition, the Emax under setting [8] is 79.6%.
Taken in the same sequence, the figures for `Fc1ccc2c(C3=CCN(Cc4nnc(C5CCC5)o4)CC3)c[nH]c2c1` [DDD01071325] were 1.7 µM and 88.7%.
On to `Cc1cn2c(n1)C(CNCC1=Cc3cc(Cl)ccc3OC1)CCC2` (stereo not drawn) [DDD01073229], for which the IC50 under setting [7] was 1.71 µM.
`COc1ccccc1C(C)(C)NCc1ccc(C)o1` [DDD01074244]: under setting [7], the concentration for half-maximal inhibition (IC50) came to 1.77 µM. For the same molecule, under setting [8], the Emax worked out at 82.7%.
The corresponding values for `CC(=O)N(c1ccc(C)cc1)c1nc(CN2CCCC(C)C2)cs1` (stereo not drawn) [DDD01075341] are 1.83 µM and 86.4%.
As for `CCC(NCc1ccccc1Cl)c1ccccc1OCC(=O)NC` (stereo not drawn) [DDD01075649], the IC50 is above 12.5 µM under setting [9], 1.9 µM under setting [7] and 3.66 µM under setting [11]. Besides, the Emax was found to be 81.7% under setting [8], 57.7% under setting [10] and 86.1% under setting [12].
As to `CCC(NCc1ccccc1C)c1ccccc1OCC(=O)NC` (stereo not drawn) [DDD01075651], the concentration for half-maximal inhibition (IC50) is above 12.5 µM under setting [1], 0.85 µM under setting [2] and 2.43 µM under setting [5]. The Emax runs as follows: under setting [3], 76.9%; under setting [4], 60.7%; under setting [6], 84.1%.
For the molecule `CCC(NCc1cccc(Cl)c1)c1ccccc1OCC(=O)NC` (stereo not drawn) [DDD01075652], under setting [7], the IC50 came to 1.31 µM. The Emax under setting [8] was 76.5%.
The corresponding values for `CC(C)Oc1ccc(C(O)CNCc2ccccc2C(F)(F)F)cc1` (stereo not drawn) [DDD01076007] are 1.5 µM and 80.1%.
Turning to `Cc1cnn(CCCNCc2csc(COc3ccccc3)n2)c1` [DDD01077297], the IC50 reads like this: under setting [9], 7.24 µM; under setting [7], 1.25 µM; under setting [11], 1.2 µM. For the same molecule, the Emax turned out to be 85.8% under setting [8], 63.7% under setting [10] and 86.7% under setting [12].
In the case of `CO[C@@H]1CCN(Cc2ccoc2)C[C@@H]1Cc1ccccc1` [DDD01081909], under setting [2], the 50% inhibitory concentration (IC50) is 1.08 µM. Besides, the Emax under setting [3] was 85.9%.
For the molecule `FC1(F)CCN(Cc2cccnc2)CC12CCN(c1ccccc1)C2` (stereo not drawn) [DDD01082961], under setting [7], the IC50 worked out at 1.65 µM. Under setting [8], the Emax worked out at 91.5%.
Taken in the same sequence, the figures for `Fc1cnc(N2CCCC3(CCN(Cc4ccoc4)C3)C2)nc1` (stereo not drawn) [DDD01084184] were 1.79 µM and 83.1%.
For `CC(C)[C@H](CO)Nc1nccc(-c2c[nH]nc2-c2ccncc2)n1` [DDD01235869], the IC50 under setting [7] amounted to 1.69 µM. In addition, under setting [8], the Emax turned out to be 82%.
Taken in the same sequence, the figures for `CC(Nc1nc(-c2ccccc2)nc2c1CCNCC2)c1cccnc1` (stereo not drawn) [DDD01244613] were 1.58 µM and 92.9%.
As for `Cc1ncc(CN(C)C2CCCN(CCc3ccccc3)C2)n1C` (stereo not drawn) [DDD01244648], the IC50 under setting [1] is 6.24 µM, the IC50 under setting [2] stood at 0.88 µM and the IC50 under setting [5] was 1.78 µM. Besides, the Emax is, setting by setting: under setting [3], 88.5%; under setting [4], 55.1%; under setting [6], 88.7%.
As for `CC(C)=CCN1CCC2(CC1)c1ccccc1[C@@H](N1CCSCC1)[C@@H]2O` [DDD01245335], the concentration for half-maximal inhibition (IC50) under setting [7] came to 1.31 µM. The Emax under setting [8] was determined as 82.4%.
Taken in the same sequence, the figures for `Cn1cc(CN2CCCC(CCc3ccc(F)cc3)C2)cn1` (stereo not drawn) [DDD01246631] were 1.75 µM and 84.6%.
Taken in the same sequence, the figures for `CC(C)(C)n1cc(C2=CCN(CCN3CCCCCC3)CC2)cn1` [DDD01248990] were 1.53 µM and 78.1%.
For the molecule `COc1ccc2[nH]c(CNc3cc(C4CCNCC4)nc(C)n3)cc2c1` [DDD01249030], the concentration for half-maximal inhibition (IC50) under setting [7] turned out to be 1.88 µM. The Emax under setting [8] was determined as 88%.
As to `CN1CCC(N(C)C[C@H]2CC[C@@H](Cc3ccc4occc4c3)O2)CC1` [DDD01250070], the IC50 under setting [7] was 1.57 µM. Moreover, the Emax under setting [8] amounted to 82.8%.
In the case of `C=Cc1cccc(CN2C[C@@H](CN(C)CC)[C@@H](CO)C2)c1` [DDD01250237], the 50% inhibitory concentration (IC50) under setting [7] amounted to 1.27 µM. Under setting [8], the Emax was 83.3%.
With `C[C@@H]1CN(C(=O)C2CCS(=O)(=O)CC2)CC[C@@]1(O)C1CCOCC1` [DDD01250493], the 50% inhibitory concentration (IC50) under setting [7] came to 1.67 µM. Moreover, the Emax under setting [8] is 82.2%.
The corresponding values for `O=C(CCN1CCCC(CO)(CC2CC2)C1)NCc1cccc(Cl)c1` (stereo not drawn) [DDD01250518] are 1.83 µM and 81.8%.
The corresponding values for `COc1ccccc1CCN1CCCC(CN(C)Cc2ccc(C)o2)C1` (stereo not drawn) [DDD01250738] are 1.36 µM and 86.1%.
With `COc1ccnc(CN2CCCC(CCc3ccccc3)C2)c1OC` (stereo not drawn) [DDD01250826], the IC50 was 1.41 µM under setting [9], 1.26 µM under setting [7] and 0.447 µM under setting [11]. Besides, the Emax was found to be 92.5% under setting [8], 93% under setting [10] and 99.3% under setting [12].
As for `Cn1cc(CN2CCCC(CCc3ccc(F)cc3F)C2)cn1` (stereo not drawn) [DDD01251707], the IC50 under setting [7] is 1.69 µM. Further, the Emax under setting [8] was 81%.
Taken in the same sequence, the figures for `Cc1ccccc1CN(CCN(C)C)Cc1ccc(S(C)(=O)=O)cc1` [DDD01251767] were 1.52 µM and 76.8%.
As to `COc1cccc(OC)c1CN1CC(=O)N(c2ccc(C)cc2)CC1C` (stereo not drawn) [DDD01252418], the IC50 stood at 3.67 µM under setting [9], 1.26 µM under setting [7] and 1.8 µM under setting [11]. Moreover, the Emax is, setting by setting: under setting [8], 89.5%; under setting [12], 93.6%.
Regarding `Cc1nc(-c2cc(Cl)c3c(c2)CC(CN)O3)c[nH]1` (stereo not drawn) [DDD01252814], the concentration for half-maximal inhibition (IC50) under setting [7] came to 2.18 µM. Moreover, the Emax under setting [8] turned out to be 88.7%.
The corresponding values for `CCC[C@H]1CN(c2nc(CO)cs2)C[C@@H]1NC(=O)C1(COC)CC1` [DDD01253377] are 1.81 µM and 80.7%.
For the molecule `Cc1cc(S(=O)(=O)NCC2CNCCOC2)c(C)cc1Cl` (stereo not drawn) [DDD01253448], the IC50 reads like this: under setting [9], above 4.16 µM; under setting [7], 1.24 µM; under setting [11], 1.64 µM. The Emax reads like this: under setting [8], 89.3%; under setting [10], 24.9%; under setting [12], 89%.
On to `Cc1cccnc1CC(C)NC1Cc2ccccc2C1` (stereo not drawn) [DDD01255733], for which the IC50 under setting [7] is 1.76 µM. For the same molecule, under setting [8], the Emax was 81.8%.
On to `Cc1c(C(=O)N2CCC(N3CCCCC3)CC2)n(C)c2ccc(Cl)cc12` [DDD01255900], for which the IC50 came to 3.56 µM under setting [1], 1.11 µM under setting [2] and 1.7 µM under setting [5]. Further, the Emax is 93.8% under setting [3], 96.3% under setting [4] and 98.9% under setting [6].
Consider `c1ccc2sc(N3CCCN(c4ncnc5c4CCNC5)CC3)nc2c1` [DDD01257073], for which the IC50 under setting [7] is 1.83 µM. Besides, the Emax under setting [8] was found to be 84%.
As for `O=C(c1ccc(F)c(Cl)c1)N1C[C@H]2CC[C@@H](C1)N(Cc1ccccc1)C2` [DDD01257805], the IC50 amounted to 5.31 µM under setting [9], 1.16 µM under setting [7] and 2.39 µM under setting [11]. The Emax is, setting by setting: under setting [8], 85.8%; under setting [10], 91.8%; under setting [12], 97.8%.
As to `Cc1cc(F)ccc1CN1CCC(O)(CN2CCCCC2)C1` (stereo not drawn) [DDD01258113], under setting [7], the 50% inhibitory concentration (IC50) worked out at 1.22 µM. In addition, the Emax under setting [8] came out at 83.7%.
The corresponding values for `CCC1CN(C(=O)c2ccc(Cl)cc2O)CCN1C(C)C` (stereo not drawn) [DDD01258121] are 2.57 µM and 80.5%.
Taken in the same sequence, the figures for `CN1CCCC(c2cccc(Cc3ccccc3Cl)n2)C1` (stereo not drawn) [DDD01270191] were 1.72 µM and 80.2%.
Turning to `CCN1CCCC(CNC(=O)C2(c3cc(C)cc(C)c3)CCC2)C1` (stereo not drawn) [DDD01296287], the IC50 under setting [7] was found to be 1.39 µM.
With `CC(O)CN1CCC(CNCc2ccc(OC(F)(F)F)cc2)CC1` (stereo not drawn) [DDD01297562], under setting [7], the IC50 amounted to 1.25 µM. The Emax under setting [8] was found to be 90.4%.
Taken in the same sequence, the figures for `CN1CCCC1CNC(=O)CCCOc1cccc(Br)c1` (stereo not drawn) [DDD01297989] were 1.4 µM and 83.9%.
Regarding `CCN(CC)C(CNC(=O)c1c(C)noc1C(C)C)c1ccsc1` (stereo not drawn) [DDD01298744], the IC50 under setting [2] amounted to 0.96 µM. Moreover, the Emax under setting [3] amounted to 85.7%.
`c1cnnc(N2CCCC2CNc2ncnc3sccc23)c1` (stereo not drawn) [DDD01299704]: the IC50 under setting [7] amounted to 1.61 µM. The Emax under setting [8] came to 92.3%.
As to `CN(Cc1ncc(C(C)(C)C)o1)CC1CCCN1c1cccnn1` (stereo not drawn) [DDD01301524], the IC50 under setting [7] is 1.81 µM.
As to `C[C@@H]1CC[C@H]2[C@@H](C)C(=O)O[C@@H]3O[C@@]4(C)CC[C@@H]1[C@]32OO4` [artemisinin, reference compound], the inhibition (as a rule, the change of the read-out against control, counted positive when it falls) at 10 µM (DD2, 96 h, control at 10 μM, read-out: mean inhibition of positive control in ABS primary screen) came to 99.6 ± 1.03%.
